Test results reported in US20180161388A1, “SUBSTANCE P, MAST CELL DEGRANULATION INHIBITORS, AND PERIPHERAL NEUROPATHY” (Beth Israel Deaconess Medical Center, Inc., priority 2015, published 2018).
Entries after “also recorded” stand apart in the source; their conditions may differ. Where no end group is shown, it is not given here.

Tests used:
mast cells (MC) = test: Toluidine blue count of degranulated mast cells in dorsal skin biopsies of STZ-DM mice; assay type: in vivo; conditions: STZ-DM C57Bl6 mice, 8-weeks DM, ten days intraperitoneal treatment
Procedure: The number of intact or non-degranulated and degranulated MC in dorsal skin biopsies from non-DM and STZ-DM C57B16 mice with 8-weeks DM were evaluated by toluidine blue staining. Sections were stained metachromatically with 0.1% toluidine blue, pH 2 (cytoplasmic granules appear purple on a blue background). […] See e.g., J Peripher Nery Syst 2008; 13:218-27, Handbook of clinical neurology 2013; 115:115-36, Immunol Rev 2007; 217:65-78, Proc Natl Acad Sci USA 2006; 103:7759-64, and Nature 1982; 297:229-31. Non-DM and STZ-DM mice were also treated for ten days intraperitoneally with the MC stabilizer disodium cromoglycate (DSCG). […] However, the number of extensively degranulated MC was increased whereas the number of non-degranulated cells was reduced in STZ-DM mice compared to the non-DM controls.

M1 and M2 macrophages = test: M1/M2 macrophage ratio in skin after 10-day intraperitoneal DSCG; assay type: in vivo, mice; conditions: measured ten days after treatment completion
Procedure: The number of HLA-DR^+/CD68^+ (M1−) and CD206/CD68^+ (M2−) macrophages in the skin of DM patients and non-DM subjects were evaluated by immunofluorescence following previously defined methods. See e.g., J Peripher Nery Syst 2008; 13:218-27, Handbook of clinical neurology 2013; 115:115-36, Immunol Rev 2007; 217:65-78, Proc Natl Acad Sci USA 2006; 103:7759-64, and Nature 1982; 297:229-31. […] The gene expression of M1-associated pro-inflammatory cytokines, such as TNF-α (FIG. 4, panel a) and IL-1β (FIG. 4, panel b), was also elevated in the foot skin of diabetes mellitus patients, whereas the M2-associated anti-inflammatory cytokine IL-10 was reduced (FIG. 4, panel c).
Using the same methods as in the human samples described above, an increased M1/M2 ratio in C57BL/6J STZ-DM mice was observed. […] Both non-DM and STZ-DM KO mice and their normal littermates were tested.
The effect of a 10-day disodium cromoglycate (DSCG) intraperitoneal administration was evaluated in non-DM and STZ-DM C57B16 mice that were also tested for their wound healing capacity.

[1] = test system: intraepidermal nerve fibers; test: Intraepidermal nerve fiber density (IENFD) in normal skin adjacent to wounds; assay type: in vivo, mice
Procedure: In a blinded mode, the IENFD in normal skin areas adjacent to wounds in non-DM and DM not-treated and treated with topical SP application for a 10-day period as described above (FIGS. 13 and 14) was evaluated. […] Similar results were found in preliminary studies that evaluated the effect of MC stabilization with DSCG. More specifically, DSCG treatment in two DM mice tended to have a beneficial effect in IENFD (151±55 fibers/mm) compared to four non-treated DM mice (55±17, p<0.05). Initial observations in TAC1KO mice also indicated reduced IENFD (28±12, n=2 mice) that improved in a similar way as with the previous experiments following SP treatment (41±16, n=2).

6 mm excisional wounds = test: Daily topical SP in 6 mm excisional wounds: IL-6 expression and M1/M2 ratio; assay type: in vivo, mice
From the text: Daily topical Substance P (SP) application in 6 mm excisional wounds created at the back of non-DM and STZ-DM mice increased the IL-6 expression and M1/M2 ratio three days after wounding, imitating the acute inflammatory phase of wound healing in acute wounds (FIG. 12). However, at Day-10, SP reduced both these inflammatory factors in STZ-DM mice, which was increased when compared to non-DM mice.

wounds = test: Topical wound SP treatment in MC deficient mice (wound healing); assay type: in vivo; conditions: compared with WT mice
From the text: Combined topical treatment with SP and an MC stabilization agent should have an additive, if not synergistic, effect in preventing and reversing SFN.

[2] = STZ-DM mice, Day-10, listed as SP
[3] = non-DM and STZ-DM mice, three days after wounding
[4] = non-DM and STZ-DM mice, three days after wounding, listed as SP

Compound | number of degranulated MC in skin (mast cells (MC)) | M1/M2 macrophage ratio (M1 and M2 macrophages; STZ-DM C57Bl6 mice) | M1/M2 macrophage ratio (M1 and M2 macrophages; non-DM C57Bl6 mice) | IENFD ([1]; DM mice treated with DSCG (two mice), preliminary study, non-treated DM 55±17) [fibers/mm] | IL-6 expression in wounds (6 mm excisional wounds; [2]) | M1/M2 ratio in wounds (6 mm excisional wounds; [2]) | IL-6 expression in wounds (6 mm excisional wounds; [3]) | M1/M2 ratio in wounds (6 mm excisional wounds; [3]) | IL-6 expression in wounds (6 mm excisional wounds; [4]) | M1/M2 ratio in wounds (6 mm excisional wounds; [4]) | IENFD ([1]; DM mice, topical application for 10 days, periwound normal skin, listed as SP) | IENFD ([1]; TAC1KO mice after SP treatment (n=2), initial observations, untreated 28±12) [fibers/mm] | IENFD ([1]; non-DM mice, topical application for 10 days, periwound normal skin, listed as SP) | effect on wound healing (wounds)
O=C([O-])c1cc(=O)c2c(OCC(O)COc3cccc4oc(C(=O)[O-])cc(=O)c34)cccc2o1.[Na+].[Na+] [DSCG, disodium cromoglycate] | effectively reduce the number of degranulated cells | drastically reduces it in STZ-DM to normal levels; also recorded: reduced the ratio to levels similar to the non-DM mice; also recorded: reduces the M1/M2 ratio to normal levels | no effect | 151±55 |  |  |  |  |  |  |  |  |  | 
Substance P (RPKPQQFFGLM-NH2; ends and bridges not checked; UniProt P20366 58-68, looked up) [neuropeptide Substance P (SP), acts through the NK1 receptor] |  |  |  |  | reduced the chronic inflammation | reduced the chronic inflammation | increased | increased | induced an acute inflammatory response | induced an acute inflammatory response | returned to normal levels; also recorded: increased IENFD to levels similar to the non-DM mice | 41±16 | did not affect IENFD; also recorded: no obvious effect | lacks the beneficial effects
